Test systems include SK-MEL-5 melanoma; HOP-62 NSCLC; NCI-H226 lung; HT29 colon; A498 renal; HCC-2998 colon; K-562 leukemia; SF-295 CNS; UACC-257 melanoma; MDA-MB-435.
Assay in all cases: NCI-60 cell line screen, 48 h

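All cell lines were grown in 96-well plates and treated with compound for 48 hours. At the GI50, growth is halved. TGI denotes the concentration required for complete inhibition of growth.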

The source of these data is PubChem BioAssay (NCI).

`Cc1cc2c(cc1C)[n+](=O)c(C(=O)/C=C/c1ccccc1Cl)c(C)n2[O-]`: the TGI in the test with SK-MEL-5 melanoma was 59.6 µM; with HOP-62 NSCLC it was 58.9 µM; with NCI-H226 lung it was more than 100 µM; in the test with HT29 colon, more than 100 µM; in the test on A498 renal, 96.7 µM; with HCC-2998 colon, 34.2 µM. For the same compound, the TGI with K-562 leukemia is more than 100 µM; in the test on SF-295 CNS, more than 100 µM; with UACC-257 melanoma, 57.5 µM.

Regarding `O=C(O)C1OC(Oc2cc(O)c3c(=O)cc(-c4ccc(O)cc4)oc3c2)C(O)C(O)C1O` (stereo not given), the TGI with SK-MEL-5 melanoma, in the test with HOP-62 NSCLC, in the test on NCI-H226 lung, in the test with HT29 colon, in the test on HCC-2998 colon and in the test on SF-295 CNS was more than 100 µM each time. The TGI with UACC-257 melanoma is more than 100 µM.

As for `COc1cc(-c2cc(CCC(=O)Nc3ccccc3[N+](=O)[O-])n(-c3ccc([N+](=O)[O-])cc3[N+](=O)[O-])n2)ccc1O`, the GI50 was more than 100 µM in the test on SK-MEL-5 melanoma; more than 100 µM in the test on HOP-62 NSCLC; more than 100 µM with NCI-H226 lung; more than 100 µM in the test on A498 renal; more than 100 µM in the test on HCC-2998 colon; more than 10 µM in the test on K-562 leukemia. Moreover, the TGI in the test with SK-MEL-5 melanoma is more than 100 µM; in the test on HOP-62 NSCLC it was more than 100 µM; with NCI-H226 lung it was more than 100 µM; in the test on HT29 colon, more than 10 µM; in the test on A498 renal, more than 100 µM; in the test on HCC-2998 colon, more than 100 µM. In addition, the figures for the TGI in the test on K-562 leukemia, with SF-295 CNS and in the test on UACC-257 melanoma were more than 100 µM, more than 10 µM and more than 10 µM, respectively.

For the compound `Cc1cccc(NC(=O)CC#N)c1Cl`, the TGI in the test on NCI-H226 lung, in the test on HT29 colon, with K-562 leukemia, in the test with SF-295 CNS and in the test on UACC-257 melanoma was more than 100 µM in each case.

As to `N#CC1=C(c2ccccc2)C(O)(c2ccccc2)NC1=O` (stereo not given), the TGI with SK-MEL-5 melanoma was more than 100 µM; in the test on HOP-62 NSCLC, more than 100 µM; in the test with NCI-H226 lung it was more than 100 µM; in the test with HT29 colon, more than 100 µM; with A498 renal, 60.6 µM; in the test on HCC-2998 colon, more than 100 µM. Also, the TGI in the test with K-562 leukemia, in the test with SF-295 CNS and in the test on UACC-257 melanoma was more than 100 µM throughout.

`CN1CCCCC1CCN1c2ccccc2Sc2ccc(S(C)=O)cc21` (stereo not given): the TGI in the test with SK-MEL-5 melanoma, in the test with HOP-62 NSCLC, with NCI-H226 lung, in the test on HT29 colon, with A498 renal and in the test on MDA-MB-435 was more than 100 µM throughout. Also, the TGI in the test on K-562 leukemia, in the test with SF-295 CNS and in the test on UACC-257 melanoma was more than 100 µM each time.

As for `Cc1nc2cc(N)c(Cl)cc2[nH]1`, the TGI in the test with SK-MEL-5 melanoma, with HOP-62 NSCLC, in the test on NCI-H226 lung, in the test on HT29 colon, with A498 renal and in the test with MDA-MB-435 was more than 100 µM in each case. In addition, the TGI with K-562 leukemia, in the test on SF-295 CNS and in the test with UACC-257 melanoma was more than 100 µM in each case.

Consider `Oc1cc2c(cc1O)-c1[nH]ncc1CC2`, for which the TGI with SK-MEL-5 melanoma was more than 100 µM; in the test on HOP-62 NSCLC it was more than 100 µM; with NCI-H226 lung, 69 µM; in the test with HT29 colon it was more than 100 µM; in the test on A498 renal, 95.8 µM; in the test on HCC-2998 colon it was 50.7 µM. Also, the TGI with K-562 leukemia, in the test on SF-295 CNS and in the test with UACC-257 melanoma was more than 100 µM each time.

Consider `O=C(O)/C=C\C(=O)Nc1ccc2c(c1)C(=O)c1cc(F)ccc1-2`, for which the TGI in the test on SK-MEL-5 melanoma, in the test with HOP-62 NSCLC, in the test with NCI-H226 lung, in the test with HT29 colon, with A498 renal and in the test on MDA-MB-435 was more than 100 µM in each case. In addition, the TGI with K-562 leukemia, in the test with SF-295 CNS and in the test with UACC-257 melanoma was more than 100 µM throughout.

`CC(C)CC(=O)NS(=O)(=O)c1ccccc1`: the TGI in the test on HOP-62 NSCLC, in the test with NCI-H226 lung, in the test with HT29 colon, with A498 renal, in the test with HCC-2998 colon and in the test on K-562 leukemia was more than 100 µM throughout. Also, the TGI with SF-295 CNS and in the test on UACC-257 melanoma was more than 100 µM each time.

Regarding `O=C([O-])c1ccccc1Nc1ccccc1[O-].[Ni+3].[OH3+].[OH3+].[OH3+]`, the GI50 with SK-MEL-5 melanoma was more than 100 µM; in the test with HOP-62 NSCLC it was more than 100 µM; in the test on NCI-H226 lung, 88.4 µM; in the test with HT29 colon, more than 100 µM; in the test on A498 renal, more than 100 µM; in the test on HCC-2998 colon, more than 100 µM. Further, the GI50 in the test with K-562 leukemia, in the test on SF-295 CNS and in the test on UACC-257 melanoma was more than 100 µM each time. Besides, the TGI in the test on SK-MEL-5 melanoma, in the test with HOP-62 NSCLC, in the test on NCI-H226 lung, in the test on HT29 colon, with A498 renal and with HCC-2998 colon was more than 100 µM throughout. The TGI with K-562 leukemia, in the test on SF-295 CNS and in the test with UACC-257 melanoma was more than 100 µM in each case.

Turning to `O=C(c1ccc2c3c(ccc(C(=O)C(F)(F)F)c13)CC2)C(F)(F)F`, the TGI in the test with HOP-62 NSCLC, in the test on NCI-H226 lung, in the test with HT29 colon, in the test on A498 renal, in the test with HCC-2998 colon and with SF-295 CNS was more than 100 µM in each case. In the test with UACC-257 melanoma, this compound returned a TGI of more than 100 µM.

With `CC(Oc1ccc2cc(C(=O)c3ccccc3)c(=O)oc2c1)C(=O)O` (stereo not given), the TGI in the test with SK-MEL-5 melanoma, in the test on HOP-62 NSCLC, in the test on NCI-H226 lung, with HT29 colon, in the test with A498 renal and in the test on HCC-2998 colon was more than 100 µM throughout. Further, the TGI in the test on K-562 leukemia, with SF-295 CNS and in the test on UACC-257 melanoma was more than 100 µM each time.

As to `ClC[Si]12OCCN(CCO1)CCO2`, the TGI in the test on SK-MEL-5 melanoma, with NCI-H226 lung, with HT29 colon, in the test on A498 renal, in the test with HCC-2998 colon and with K-562 leukemia was more than 100 µM each time. The TGI in the test with SF-295 CNS and in the test on UACC-257 melanoma was more than 100 µM throughout.

On to `CC1(C)OC(=O)C(=C2CC(c3ccccc3)c3ccccc32)C(=O)O1` (stereo not given), for which the TGI with SK-MEL-5 melanoma, in the test with HOP-62 NSCLC, in the test with NCI-H226 lung, in the test on HT29 colon, with A498 renal and with HCC-2998 colon was more than 100 µM in each case. Further, the TGI with K-562 leukemia, in the test on SF-295 CNS and in the test with UACC-257 melanoma was more than 100 µM in each case.
